Assay results taken from patent US10654851B2, “Deuterated 3-(4,5-substituted aminopyrimidine)phenyl derivatives and use thereof” (NANJING CHUANGTE PHARMACEUTICAL TECHNOLOGY CO., LTD, priority 2016, dated 2020).

Columns and labels:
[1] = molecular target: EGFR (L858R) single mutant (Homo sapiens, UniProt P00533, L858R); assay: HTRF kinase activity assay, EGFR (L858R) single mutant
Procedure: (§1) The above kinases were purchased from Invitrogen Corporation Shanghai Representative Office.
(§2) The reaction concentration of the compounds was three times diluted from 1000 nM for 9 concentrations. The concentration of DMSO in the reaction system was 2%. The enzyme and the compound were pre-incubated for 15 minutes, and then ATP and substrate were added to initiate the reaction. All enzyme catalyzed reactions were carried out at 25° C. for 60 minutes. […] Measure the HTRF fluorescence value with CLARIOstar (BMG LABTECH) after the incubation, and IC50 was determined using GraphPad Prism 5.0.

[2] = molecular target: T1, hERG potassium channels (Homo sapiens, UniProt Q12809); assay: hERG potassium channel whole cell patch clamp; format: cell-based; conditions: HEK293 cells stably expressing hERG, tail current, read-out: IC50 of inhibition on hERG potassium channels at cell level
T1 construct: expressed in transfected cells; host or cells: HEK293
T1 sequence (Q12809 whole entry): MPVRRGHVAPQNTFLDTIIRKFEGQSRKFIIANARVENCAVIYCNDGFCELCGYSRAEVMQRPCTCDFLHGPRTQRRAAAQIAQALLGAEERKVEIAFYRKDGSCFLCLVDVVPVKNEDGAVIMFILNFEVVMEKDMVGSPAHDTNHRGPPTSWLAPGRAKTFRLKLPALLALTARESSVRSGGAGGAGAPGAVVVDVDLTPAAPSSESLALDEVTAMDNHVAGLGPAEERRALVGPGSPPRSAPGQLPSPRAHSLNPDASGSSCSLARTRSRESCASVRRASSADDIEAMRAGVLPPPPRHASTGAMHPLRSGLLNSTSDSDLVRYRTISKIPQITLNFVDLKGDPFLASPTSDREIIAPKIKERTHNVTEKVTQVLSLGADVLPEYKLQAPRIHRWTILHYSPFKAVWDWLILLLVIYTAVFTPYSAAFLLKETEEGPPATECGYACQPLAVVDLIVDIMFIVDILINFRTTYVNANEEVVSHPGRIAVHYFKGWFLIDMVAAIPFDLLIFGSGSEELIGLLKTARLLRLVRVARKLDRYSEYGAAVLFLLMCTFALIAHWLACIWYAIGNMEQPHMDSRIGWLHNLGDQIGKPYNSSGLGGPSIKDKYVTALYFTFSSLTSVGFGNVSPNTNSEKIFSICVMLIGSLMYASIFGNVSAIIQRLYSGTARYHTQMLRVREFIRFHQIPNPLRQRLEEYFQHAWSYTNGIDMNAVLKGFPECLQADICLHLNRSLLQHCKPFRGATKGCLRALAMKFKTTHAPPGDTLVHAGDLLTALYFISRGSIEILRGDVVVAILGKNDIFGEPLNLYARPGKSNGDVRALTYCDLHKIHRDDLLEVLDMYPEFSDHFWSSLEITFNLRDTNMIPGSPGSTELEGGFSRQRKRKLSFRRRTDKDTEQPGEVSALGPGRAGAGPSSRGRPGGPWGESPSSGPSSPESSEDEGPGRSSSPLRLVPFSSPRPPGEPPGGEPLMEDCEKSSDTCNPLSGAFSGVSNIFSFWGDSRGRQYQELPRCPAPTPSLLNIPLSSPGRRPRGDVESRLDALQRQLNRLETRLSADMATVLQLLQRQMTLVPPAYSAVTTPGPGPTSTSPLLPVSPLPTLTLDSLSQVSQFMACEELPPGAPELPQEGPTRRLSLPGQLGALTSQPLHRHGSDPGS
Procedure: 3) Assay on the Effects of the Compounds on hERG Potassium Channels
HEK293 cells stably expressing an hERG channel were cultured in 35 mm culture dishes and placed in a 37° C./5% CO2 incubator for at least 24 hours before the experiment. The cell culture medium was DMEM containing 10% fetal bovine serum and 250 μg/mL G418.
The ingredients of the extracellular fluid used in the whole cell patch clamp experiment were (mM): NaCl, 137; KCl, 4; CaCl2, 1.8; MgCl2, 1; HEPES, 10; glucose 10; pH 7.4 (NaOH titration). All tested compounds and control compound solutions contained 0.3% DMSO. The intracellular fluid (mM) was: K Aspartate, 130; MgCl2, 5; EGTA 5; HEPES, 10; Tris-ATP 4; pH 7.2 (KOH titration).
One dish was taken out for each experiment, washed twice with the extracellular fluid, and placed on an inverted microscope stage. The whole cell patch clamp experiment was performed at room temperature with a tip resistance of 3 to 5 MΩ for a borosilicate glass microelectrode. After the whole cell recording mode, the membrane potential was clamped at −80 mV, gave a +50 mV depolarization voltage stimulation to the cells every 30 s and then repolarized to −50 mV for 3 s after 2 s to elicit hERG tail current. The cells were given a −50 mV repolarization voltage for 50 ms before the depolarization voltage stimulation, and the current recorded under this voltage was used as a baseline for calculating the hERG tail current. The hERG tail current was stably recorded for at least 3 minutes in the extracellular fluid before the addition of the compound. When the amplitude change of the hERG tail current was less than 5% after perfusion administration, it was considered that the drug action reached a steady state. Data was acquired and analyzed by a pCLAMP 10.1 software program. […] The inhibition rate of the tested compound to the hERG current was calculated according to the following equation: % inhibition rate={1−(remaining current amplitude)/(control current amplitude)}×100 […]

[3] = molecular target: T2, EGFR wild type (Homo sapiens, UniProt P00533); assay: HTRF kinase activity assay, EGFR wild type; format: biochemical; conditions: 10 μM ATP, read-out: In vitro enzymatic activity IC50, EGFR
T2 construct: purchased Invitrogen Corporation Shanghai Representative Office
T2 sequence (P00533 25-1210): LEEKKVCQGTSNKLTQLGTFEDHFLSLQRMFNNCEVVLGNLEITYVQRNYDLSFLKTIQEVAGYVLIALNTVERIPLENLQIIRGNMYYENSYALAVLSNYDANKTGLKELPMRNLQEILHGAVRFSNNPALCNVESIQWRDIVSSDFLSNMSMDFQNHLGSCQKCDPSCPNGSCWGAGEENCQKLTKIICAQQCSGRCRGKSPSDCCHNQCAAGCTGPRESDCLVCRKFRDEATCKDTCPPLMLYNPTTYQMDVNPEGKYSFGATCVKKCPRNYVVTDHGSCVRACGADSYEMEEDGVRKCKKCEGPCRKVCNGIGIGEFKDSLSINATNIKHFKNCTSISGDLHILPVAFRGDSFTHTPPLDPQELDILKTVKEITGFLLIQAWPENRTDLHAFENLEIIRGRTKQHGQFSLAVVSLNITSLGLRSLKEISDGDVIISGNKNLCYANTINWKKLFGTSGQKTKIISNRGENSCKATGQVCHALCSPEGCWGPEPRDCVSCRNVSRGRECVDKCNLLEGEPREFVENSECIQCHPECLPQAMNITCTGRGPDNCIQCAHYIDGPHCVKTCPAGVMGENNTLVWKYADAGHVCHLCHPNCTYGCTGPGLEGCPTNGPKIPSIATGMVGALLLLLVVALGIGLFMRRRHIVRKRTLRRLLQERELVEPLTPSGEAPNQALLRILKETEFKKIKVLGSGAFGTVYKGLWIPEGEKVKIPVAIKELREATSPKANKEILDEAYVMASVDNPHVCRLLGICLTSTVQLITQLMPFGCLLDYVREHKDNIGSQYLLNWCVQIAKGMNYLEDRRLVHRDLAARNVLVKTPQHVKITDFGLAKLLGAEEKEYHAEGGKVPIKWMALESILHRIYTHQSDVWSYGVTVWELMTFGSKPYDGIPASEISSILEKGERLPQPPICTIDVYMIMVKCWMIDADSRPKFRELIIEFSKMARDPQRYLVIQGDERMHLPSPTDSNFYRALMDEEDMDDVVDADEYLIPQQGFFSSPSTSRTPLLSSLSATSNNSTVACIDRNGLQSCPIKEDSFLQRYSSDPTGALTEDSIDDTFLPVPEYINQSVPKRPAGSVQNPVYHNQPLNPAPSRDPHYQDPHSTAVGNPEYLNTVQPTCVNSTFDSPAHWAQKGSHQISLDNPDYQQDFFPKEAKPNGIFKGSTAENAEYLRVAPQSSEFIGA
Procedure: as §1, §2

[4] = molecular target: T3, Exon19 deletion EGFR in HCC827 cells (Homo sapiens, UniProt P00533, DEL746-750); assay: Exon19 deletion EGFR cell phosphorylation assay (HCC827); format: cell-based; conditions: 2 h incubation, read-out: Cell level EGFR phosphorylation IC50, HCC827 (EGFR del19)
T3 construct: Assayed the endogenous p-EGFR of the cell lysate; host or cells: HCC827
T3 sequence (P00533 with tags, fused parts or gaps DEL746-750): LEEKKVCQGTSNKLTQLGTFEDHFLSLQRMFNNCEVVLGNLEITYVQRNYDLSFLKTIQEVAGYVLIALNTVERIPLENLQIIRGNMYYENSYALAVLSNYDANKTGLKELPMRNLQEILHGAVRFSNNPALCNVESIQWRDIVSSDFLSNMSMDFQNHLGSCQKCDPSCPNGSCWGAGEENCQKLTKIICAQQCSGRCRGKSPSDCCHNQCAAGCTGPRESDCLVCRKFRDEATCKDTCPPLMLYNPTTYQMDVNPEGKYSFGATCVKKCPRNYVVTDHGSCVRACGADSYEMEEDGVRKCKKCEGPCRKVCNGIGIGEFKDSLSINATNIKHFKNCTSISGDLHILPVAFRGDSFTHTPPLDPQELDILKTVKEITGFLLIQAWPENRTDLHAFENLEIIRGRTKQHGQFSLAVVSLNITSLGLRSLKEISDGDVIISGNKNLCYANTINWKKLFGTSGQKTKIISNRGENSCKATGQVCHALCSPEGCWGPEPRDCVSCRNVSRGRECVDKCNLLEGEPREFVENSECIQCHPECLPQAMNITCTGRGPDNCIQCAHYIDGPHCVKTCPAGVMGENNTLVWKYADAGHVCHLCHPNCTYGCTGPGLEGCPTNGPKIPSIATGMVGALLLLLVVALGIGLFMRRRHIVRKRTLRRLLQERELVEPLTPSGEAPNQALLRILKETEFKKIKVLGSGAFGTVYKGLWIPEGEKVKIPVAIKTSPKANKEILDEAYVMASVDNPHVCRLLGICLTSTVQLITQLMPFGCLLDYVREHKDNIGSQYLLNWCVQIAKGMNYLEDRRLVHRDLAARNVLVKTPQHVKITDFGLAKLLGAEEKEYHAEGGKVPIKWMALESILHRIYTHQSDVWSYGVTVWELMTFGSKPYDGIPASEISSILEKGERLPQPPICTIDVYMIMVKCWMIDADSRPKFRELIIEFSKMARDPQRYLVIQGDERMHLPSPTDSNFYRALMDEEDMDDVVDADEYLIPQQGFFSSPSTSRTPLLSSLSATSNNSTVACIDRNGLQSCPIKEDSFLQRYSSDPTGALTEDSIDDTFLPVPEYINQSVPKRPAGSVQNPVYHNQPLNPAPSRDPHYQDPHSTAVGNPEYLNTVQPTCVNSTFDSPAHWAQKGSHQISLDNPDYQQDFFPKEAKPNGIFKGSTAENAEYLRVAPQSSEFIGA
Procedure: Test 2: Exon19 Deletion EGFR (Activated Single Mutant) Cell Phosphorylation Assay
The human non-small cell lung cancer cell line HCC827 (Exon19 deletion EGFR, activated single mutant) was purchased from the cell bank of the Chinese Academy of Sciences. HCC827 was maintained in an RPMI1640 culture media containing 10% fetal bovine serum. The cells were grown at 37° C. in a humidified incubator containing 5% CO2. Assayed the endogenous p-EGFR of the cell lysate according to the Phospho-EGFR HTRF kit (Cisbio, No. #64HR1PEG). 100 μL of cells were added to a 96-well plate (50000 cells/well), and cultured overnight at 37° C. in a cell incubator with 5% CO2. 4-fold serial dilutions was added to the cells, the maximum concentration of the reaction being 10 μM. The culture solution was discarded after 2 hours' continuous incubation, lysate (25 μL/well) was added immediately, lyse the cells at room temperature for 10 minutes, then 12 μL/well of cells were added to a Greiner white small-volume 384-well plate, detection antibodies (Anti-phospho EGFR-d2 and Anti-EGFR-Tb) were added, and the cells were incubated at 25° C. for 60 minutes. The HTRF fluorescence value was measured with CLARIOstar (BMG LABTECH) after the incubation, and IC50 was determined using GraphPad Prism 5.0.

[5] = molecular target: wild type EGFR in A431 cells (Homo sapiens, UniProt P00533); assay: EGFR wild type cell phosphorylation assay (A431)
wild type EGFR in A431 cells, sequence (P00533 25-1210): as the sequence (P00533 25-1210) above
Procedure: Test 1: EGFR Wild Type Cell Phosphorylation Assay
The human epidermoid carcinom cell line A431 expressed wild type EGFR and was purchased from the cell bank of the Chinese Academy of Sciences. A431 was maintained in an EMEM culture media containing 10% fetal bovine serum. The cells were grown at 37° C. in a humidified incubator containing 5% CO2. Endogenous p-EGFR in the cell lysate was assayed according to Phospho-EGFR HTRF kit (Cisbio, No. #64HR1PEG). Cells were plated (50000 cells/well) in a volume of 100 μL of complete media in 96-well cell culture plates and cultured at 37° C. with 5% CO2 overnight. 4-fold serial dilutions was added to the cells, the maximum concentration of the reaction being 10 μM. The cells were incubated continuously for 2 hours, 100 ng/well of EGF was added, incubated at 37° C. for 10 minutes, then the culture solution was discarded, lysis buffer (25 μL/well) was added immediately, lyse the cells at room temperature for 10 minutes, then 12 μL/well of the cell lysates were added to a Greiner white small-volume 384-well plate, detection antibodies (Anti-phospho EGFR-d2 and Anti-EGFR-Tb) were added, and the cells were incubated at 25° C. for 60 minutes. The HTRF fluorescence value was measured with CLARIOstar (BMG LABTECH) after the incubation, and IC50 was determined using GraphPad Prism 5.0.

In the case of [2H]C([2H])([2H])N(C)CCN(C)c1cc(OC)c(Nc2nccc(-c3cn4c5c(cccc35)CCC4)n2)cc1NC(=O)C=C [Compound 11], the IC50 [1] is reported as 11.5 nM, the IC50 [2] is reported as 1850 nM and the IC50 [3] is reported as 38 nM. For the same molecule, the IC50 [4] was 101 nM and the IC50 [5] was 730 nM.
For [2H]C([2H])([2H])N(CCN(C)c1cc(OC)c(Nc2nccc(-c3cn4c5c(cccc35)CCC4)n2)cc1NC(=O)C=C)C([2H])([2H])[2H] [Compound 16], the IC50 [1] was 11.6 nM, the IC50 [2] was 2670 nM and the IC50 [3] was 27 nM. For the same molecule, the IC50 [4] was 103 nM and the IC50 [5] was 732 nM.
[2H]C([2H])([2H])N(CCN(C)C)c1cc(OC)c(Nc2nccc(-c3cn4c5c(cccc35)CCC4)n2)cc1NC(=O)C=C [Compound 24] showed an IC50 [1] of 8.99 nM, an IC50 [2] of 1970 nM and an IC50 [3] of 15.7 nM. It also gave an IC50 [4] of 78.1 nM and an IC50 [5] of 520 nM.
With [2H]C([2H])([2H])NCCN(C)c1cc(OC)c(Nc2nccc(-c3cn4c5c(cccc35)CCC4)n2)cc1NC(=O)C=C [Compound 34] the IC50 [1] was 14.1 nM and the IC50 [3] was 35.4 nM.
